We go through one compound from patent US7560591B2, “Benzamidine derivatives having anti-inflammatory and immunosuppressive activity” (Rotta Research Laboratorium S.p.A., priority 2001, dated 2009).

The IC50 is the concentration needed to halve the response being measured. Broadly, the inhibition is the drop in the measured response relative to a control, in per cent.

SMILES strings stand for the structures.

Test [1] concerns formation of NO, measured as NO2− (nitrites). Put plainly: Inhibition of NO (nitrite) formation in rabbit joint chondrocytes stimulated by IL-1β. The format is cell-based. The note with it: Oryctolagus cuniculus, Chondrocyte, IL-1β 1 ng/ml, 48 hours, NO determined as nitrites. On the procedure:
a) The activity in inhibiting the formation of NO, measured as NO2^− (nitrites), PGE2, and neutral protease, was investigated in vitro on culture broths of rabbit joint chondrocytes stimulated by cytokine IL-1β (1 ng/ml) for 48 hours. For the preparation of the chondrocytes, the method described by Berenbaum et al [FEBS Letters 340, 51-55 (1994)] was followed. Briefly, fragments of cartilage removed under sterile conditions from the heads of rabbit shoulder, hip and knee joints were chopped finely and digested at 37° C. by hyaluronidase, trypsin and collagenase solutions, giving rise, after filtration on sterile gauze and centrifuging at 600×g and suitable dilution with 10% DMEM-FCS, to a concentration of approximately 1×10^5 cells per well. The cells were kept in these conditions until confluence (about 15 days), the broth being changed every 3 days. At this point, the products under test, dissolved in the medium, were added to each test sample and, after 20 minutes, 350 μl IL-1β was added in order to have a final concentration of 1 ng/ml. The duration of the stimulation was 48 hours at 37° C. (incubation air-CO2 7%). Measurement of the nitrites, as described by Green et al. [Anal. Biochem. 126, 131-138 (1982)], and of the PGE2s by RIA measurement, was then performed on the cell supernatant fluid. The measurement of the neutral proteases was performed in the cell supernatant fluid containing the p-aminophenyl mercury acetate (APMA) activator with the use of azocoll as the substrate and with incubation at 37° C. for 17 h as described by Chavira et al. [Anal. Biochem. 136, 446-450 (1984)]. In order to evaluate the direct inhibitory effect of the compounds under test on the hydrolytic activity of the cell supernatant fluid, they were added to the supernatant fluid containing the proteases induced by IL-1β and already activated by AMPA.
The results obtained are shown in Table 3, in which the IC50, that is, the concentration (micromolar) of antagonist which can inhibit the formation of nitrites, PGE2s, and neutral proteases, respectively, by 50% relative to the control group, that is, to the cells stimulated with IL-1β but without the addition of antagonists, is given for some of the compounds of the invention already given by way of example in Table 2.

The next test relates to plasma TNFα. Put plainly: Plasma TNFα concentration in rats after stimulation with LPS (endotoxic shock). The note with it: for TNFα (ng/ml ± SD): plasma 90 minutes after challenge. The format is in vivo, rat. The method, then: c) The immunosuppressive activity of Compound I-4 was evaluated in an in vivo test in the rat, in which a lipopolysaccharide (LPS) of bacterial origin, injected i.p. at a dose of 6 mg/kg, induced a shock characterised by urgent diarrhoea accompanied by a large increase in the plasma TNFα concentration.
Blood was taken from the animals which were killed 90 minutes after the challenge and the concentration of TNFα in the plasma was determined by Elisa (Amersham Kit cod. RPN2734).

Test [2] deals with colitis induced by TNBS in rats. The experiment in a line: Colitis induced by TNBS in rats. The format is in vivo, rat. The note with it: for Weight of the colon: 48 hours after TNBS; for Weight of the colon / Myeloperoxidase activity / iNOS activity / Macroscopic damage (MDS): mean ± SD; for Myeloperoxidase activity / iNOS activity: colon tissue; for Macroscopic damage (MDS): score 0-10. An excerpt: The combined capability of some of the compounds of the invention to inhibit both iNOS and the synthesis of TNFα has led to their activity being checked in an experimental model of colitis caused by a chemical hapten, trinitrobenzene-sulphonic acid (TNBS), which can bind to the tissue proteins and stimulate cell-mediated immunity. The intrarectal administration of TNBS in association with ethanol causes acute inflammation characterised by extensive ulceration and necrosis.
A distal colitis was therefore induced in the rat by intrarectal instillation of TNBS (40 mg/kg) dissolved in 50% ethanol (0.5 ml/rat). The drugs were administered orally twice a day on days −2; −1; 0; +1 and the animals were killed 48 hours after the administration of TNBS.
The parameters examined were: total weight of the colon (g), macroscopic tissue damage “score”, measurement of the tissue myeloperoxidase (MPO) activity, which is a marker of the infiltration of the neutrophiles, and measurement of the iNOS activity (pmoles/g tissue/min.).
The macroscopic score (MDS) was taken on about 10 cm of colon in accordance with the following arbitrary scale:
The tissue MPO measurement was performed according to Velgara et al., JPET 1994. The measurement of the tissue nitrites was performed by applying the method described above for the chondrocytes to the supernatant fluid of the tissue homogenate.
Compound I-4, administered in doses of 5, 10 and 20 mg/kg, and compound I-11 were examined, by administering them orally, in comparison with sulphasalazine (250 mg/kg) and 5-aminosalicylic acid (5-ASA) (100 mg/kg), 2 drugs which are widely used in the treatment of ulcerative colitis.

Setting [3] is: 50 μg/kg ICV + LPS 6 mg/kg I.P.

`CCCCCNC(=S)Nc1ccc(NC(C)=N)cc1` [Compound I-4, N-[4-(N-acetamidine)phenyl]-N′-pentyl Thiourea] gave a half-maximal inhibitory concentration (IC50) in test [1] of 6.6 µM. Also, in the test on plasma TNFα (setting [3]), the “Inhibition (%) of plasma TNFα” value is on record as 96.2% and the “TNFα (ng/ml ± SD)” value came out at 2.3 ± 1.2 ng/mL. Moreover, the “TNFα (ng/ml ± SD)” value in the test with plasma TNFα (10 mg/kg IV + LPS 6 mg/kg I.P.) is 12.9 ± 7.2 ng/mL. In addition, the “TNFα (ng/ml ± SD)” value with plasma TNFα (20 mg/kg OS + LPS 6 mg/kg I.P.) was found to be 30.6 ± 1.0 ng/mL. Further, the inhibition at 10 mg/kg with plasma TNFα (Rattus norvegicus, 10 mg/kg IV + LPS 6 mg/kg I.P.) was determined as 78.9%. For the same compound, in test [2] (5 mg/kg orally twice a day), the “Weight of the colon” value is listed as 2.2 ± 0.2 g, the Myeloperoxidase activity was found to be 5.5 ± 1.4 UMPO/g/min, the iNOS activity came out at 131.7 ± 91.9 pmol/g/min and the “Macroscopic damage (MDS)” value stood at 5.0 ± 0.9. Also, in test [2] (10 mg/kg orally twice a day), the “Weight of the colon” value was determined as 2.1 ± 0.3 g, the Myeloperoxidase activity is reported as 5.0 ± 1.7(*) UMPO/g/min, the iNOS activity came to 98.6 ± 60.0 pmol/g/min and the “Macroscopic damage (MDS)” value is listed as 4.4 ± 0.8(*). Also, in test [2] (20 mg/kg orally twice a day), the “Weight of the colon” value amounted to 2.0 ± 0.2 g, the Myeloperoxidase activity is 5.1 ± 1.2(*) UMPO/g/min, the iNOS activity was 61.5 ± 31.4 pmol/g/min and the “Macroscopic damage (MDS)” value was 3.5 ± 0.8(*). Further, in test [2] (doses of 10 and 20 mg/kg), the “reduction of macroscopic damage” value is on record as “about 50%”, the “reduction of the increase in iNOS activity induced by TNBS” value came out at 50% and the “reduction of the increase in tissue MPO activity induced by TNBS” value amounted to 40%.
